Reference: patent US5508293A, “Pyridinecarboxyimidamide compounds and the use thereof” (Kirin Beer Kabushiki Kaisha, priority 1992, dated 1996)

Columns and labels:
[1] = system: spontaneously hypertensive rats (SHR), mean blood pressure; assay: Antihypertensive activities on spontaneously hypertensive rat (intravenously); assay type: in vivo, rat (male spontaneously hypertensive rats; details: iv, anesthetized male SHR, i.v., cumulative dosing, read-out: ED20 (the dose which lowered the blood pressure by 20%)
Protocol: Animals were anesthetized with urethane: α-chloralose.
A cannula was inserted into the carotid artery for measuring the mean blood pressure via a pressure transducer. A test compound was cumulatively administered through the cannula inserted into the femoral vein with an interval of 30 minutes. Variation of blood pressure was determined as the percentage change in the blood pressure before administration of the test compound, and the ED20 (the dose which lowered the blood pressure by 20%) was calculated from a dose-response curve.

[2] = system: beagles, blood pressure; assay: Antihypertensive activity on anesthetized beagles (intravenously); assay type: in vivo, dog (beagles)
Protocol: Antihypertensive activities of 5-amino-N-cyano-N'-[2-(2-chlorophenyl)ethyl]-3-pyridinecarboximidamide (N-cyano-N'-[2-(2-chlorophenyl)ethyl]-5-(3aminopyridine)carboximidamide; Compound No. 6) according to the present invention was assessed by comparison with those of N-cyano-N'-[2-(2-chlorophenyl)ethyl]-3-pyridinecarboximidamide which is thought to be a wellknown compound most similar to the compound of the present invention (see Japanese Patent Laid-Open Publication No. 163061/1991).
Experiments were carried out with beagles (body weight, 9.2-10.4 kg) under anesthetization by intravenous administering 30 mg/kg of pentobarbital sodium. A cannula was inserted into the right femoral artery for measuring blood pressure. […]

[3] = system: renal hypertensive beagles, blood pressure; assay: Antihypertensive activities on renal hypertensive beagles (oral); assay type: in vivo, dog (2-kidney-1-clipped renal hypertensive beagles)
Protocol: Beagles (body weight, 9.0-11.0 kg) were anesthetized with 30 mg/kg of pentobarbital sodium intravenously. The left renal artery was carefully exposed through a flank incision, and wound with two silk sutures and ligated together with a 18G needle (external diameter; 1.2 mm) at two positions with the distance of 5 mm. A polyethylene tube for the measurement of blood pressure (IMG, PE-100) was inserted into the femoral artery, and the other terminal of the tube was exteriorized at the back of the neck. The polyethylene tube was filled with physiological saline containing 500 U/ml of heparin and sealed with a steel wire plug except on the measurement of the blood pressure. Antibiotics (penicilline and streptomycin, manufactured by Meiji Seika) were administered intramuscularly for three days after operation to prevent infections.
After 5-amino-N-cyano-N'-[2-(2-chlorophenyl)ethyl]-3-pyridinecarboximidamide was put into a No. 3 gelatin capsule, a gap was filled with lactose (100 mesh). The capsule was administered orally, and blood pressure was measured for 24 hours after administering the drug. Measurement was carried out without anesthetization under suspension with sling sheet. Blood pressure was measured by connecting the tube for measuring blood pressure to a pressure transducer (TP-400T; manufactured by Nihon Kohden) and recorded on a polygraph.

[4] = Acute toxicity, oral, Compound No. 6; assay type: in vivo, rat (male SD rats, 5 weeks old); details: rat, in vivo, male SD rats (5 weeks old)
Protocol: (§1) Acute toxicity of 5-amino-N-cyano-N'-[2-(2-chlorophenyl)ethyl]-3-pyridinecarboximidamide (Compound No. 6) of the present invention on oral administration was examined with male SD rats (5 weeks old). As a result, no rats died at the dose of 50 mg/kg. LD50 was in the range over 50 mg/kg.

[5] = system: male SD rats; assay: Acute toxicity, oral, Compound No. 6; assay type: in vivo, rat (male SD rats, 5 weeks old); details: 50 mg/kg, male SD rats
Protocol: as §1

N#CNC(=NCCc1ccccc1Cl)c1cncc(N)c1 [Compound No. 6, 5-amino-N-cyano-N'-[2-(2-chlorophenyl)ethyl]-3-pyridinecarboximidamide]
ED20 [1]: 4.6 µg/kg
decrease in blood pressure ([2]; i.v., 3-30 μg/kg): Dose-dependent decrease in blood pressure was observed
duration of the antihypertensive action ([2]; i.v., dose 3 μg/kg): 10 min
Antihypertensive activity (%) ([2]; i.v., dose 3 μg/kg, 0 min after dosage): 0.0%
Antihypertensive activity (%) ([2]; i.v., dose 3 μg/kg, 1 min after dosage): -3.9%
Antihypertensive activity (%) ([2]; i.v., dose 3 μg/kg, 2 min after dosage): -12.8%
Antihypertensive activity (%) ([2]; i.v., dose 3 μg/kg, 3 min after dosage): -10.3%
Antihypertensive activity (%) ([2]; i.v., dose 3 μg/kg, 5 min after dosage): -6.4%
Antihypertensive activity (%) ([2]; i.v., dose 3 μg/kg, 7.5 min after dosage): -3.9%
Antihypertensive activity (%) ([2]; i.v., dose 3 μg/kg, 10 min after dosage): -3.9%
duration of the antihypertensive action ([2]; i.v., dose 10 μg/kg): 45 min
Antihypertensive activity (%) ([2]; i.v., dose 10 μg/kg, 0 min after dosage): 0.0%
Antihypertensive activity (%) ([2]; i.v., dose 10 μg/kg, 1 min after dosage): -16.0%
Antihypertensive activity (%) ([2]; i.v., dose 10 μg/kg, 2 min after dosage): -22.7%
Antihypertensive activity (%) ([2]; i.v., dose 10 μg/kg, 3 min after dosage): -26.7%
Antihypertensive activity (%) ([2]; i.v., dose 10 μg/kg, 5 min after dosage): -26.7%
Antihypertensive activity (%) ([2]; i.v., dose 10 μg/kg, 7.5 min after dosage): -26.7%
Antihypertensive activity (%) ([2]; i.v., dose 10 μg/kg, 10 min after dosage): -26.7%
Antihypertensive activity (%) ([2]; i.v., dose 10 μg/kg, 15 min after dosage): -20.0%
Antihypertensive activity (%) ([2]; i.v., dose 10 μg/kg, 20 min after dosage): -16.0%
Antihypertensive activity (%) ([2]; i.v., dose 10 μg/kg, 30 min after dosage): -13.3%
Antihypertensive activity (%) ([2]; i.v., dose 10 μg/kg, 45 min after dosage): -6.7%
duration of the antihypertensive action ([2]; i.v., dose 30 μg/kg): 60 min
Antihypertensive activity (%) ([2]; i.v., dose 30 μg/kg, 0 min after dosage): 0.0%
Antihypertensive activity (%) ([2]; i.v., dose 30 μg/kg, 1 min after dosage): -29.3%
Antihypertensive activity (%) ([2]; i.v., dose 30 μg/kg, 2 min after dosage): -40.0%
Antihypertensive activity (%) ([2]; i.v., dose 30 μg/kg, 3 min after dosage): -42.7%
Antihypertensive activity (%) ([2]; i.v., dose 30 μg/kg, 5 min after dosage): -46.7%
Antihypertensive activity (%) ([2]; i.v., dose 30 μg/kg, 7.5 min after dosage): -44.0%
Antihypertensive activity (%) ([2]; i.v., dose 30 μg/kg, 10 min after dosage): -42.7%
Antihypertensive activity (%) ([2]; i.v., dose 30 μg/kg, 15 min after dosage): -40.0%
Antihypertensive activity (%) ([2]; i.v., dose 30 μg/kg, 20 min after dosage): -36.0%
Antihypertensive activity (%) ([2]; i.v., dose 30 μg/kg, 30 min after dosage): -33.3%
Antihypertensive activity (%) ([2]; i.v., dose 30 μg/kg, 45 min after dosage): -24.0%
Antihypertensive activity (%) ([2]; i.v., dose 30 μg/kg, 60 min after dosage): -16.0%
antihypertensive activity determined with the passage of time ([2]; summary statement): extremely potent and sustainable
Average blood pressure ([3]; 0.25 mg/kg p.o., 0 hour after administration): 122.4 ± 4.4 mmHg
Average blood pressure ([3]; 0.25 mg/kg p.o., 1 hour after administration): 100.9 ± 7.4 mmHg
Average blood pressure ([3]; 0.25 mg/kg p.o., 2 hour after administration): 85.7 ± 0.3 mmHg
Average blood pressure ([3]; 0.25 mg/kg p.o., 4 hour after administration): 102.8 ± 3.9 mmHg
Average blood pressure ([3]; 0.25 mg/kg p.o., 6 hour after administration): 110.1 ± 2.6 mmHg
Average blood pressure ([3]; 0.25 mg/kg p.o., 8 hour after administration): 112.6 ± 3.4 mmHg
Average blood pressure ([3]; 0.25 mg/kg p.o., 24 hour after administration): 118.8 ± 4.8 mmHg
Average blood pressure ([3]; 0.50 mg/kg p.o., 0 hour after administration): 126.6 ± 0.5 mmHg
Average blood pressure ([3]; 0.50 mg/kg p.o., 1 hour after administration): 68.1 ± 7.4 mmHg
Average blood pressure ([3]; 0.50 mg/kg p.o., 2 hour after administration): 84.8 ± 6.1 mmHg
Average blood pressure ([3]; 0.50 mg/kg p.o., 4 hour after administration): 99.7 ± 12.3 mmHg
Average blood pressure ([3]; 0.50 mg/kg p.o., 6 hour after administration): 106.2 ± 9.5 mmHg
Average blood pressure ([3]; 0.50 mg/kg p.o., 8 hour after administration): 114.4 ± 7.3 mmHg
Average blood pressure ([3]; 0.50 mg/kg p.o., 24 hour after administration): 111.8 ± 3.9 mmHg
decrease in blood pressure ([3]; oral, 0.25 and 0.5 mg/kg): successive decrease in blood pressure was observed
LD50 [4]: > 50000 µg/kg
deaths [5]: no rats died
